Experimental data reported in US10561681B2, “Antimetastatic 2H-selenopheno[3,2-h]chromenes, synthesis thereof, and methods of using same agents” (Latvian Institute of Organic Synthesis, priority 2016, dated 2020).
Marks after values point to notes of the source that are not given here.

Key:
[1] = system: Lewis lung carcinoma (LLC); test: Mouse non-metastatic cancer model, Lewis lung carcinoma s.c. in BALB/c mice; type: in vivo; settings: s.c. Day 1, 2, 3, 4, 7, 8, 9, 10, 11; dose 20 mg/kg, total dose 180 mg/kg
Protocol: Six-week-old female ICR and BALB/c mice were purchased from the University of Tartu Laboratory Animal Centre (Estonia). The mice were housed five to a cage, and under standard conditions (21-23° C., 12 h light: dark cycle), fed ad libitum (R3 diet, Lactamin AB, Kimstad, Sweden) and observed daily. The experimental procedures involving experimental animals were carried out in accordance with the guidelines of the European Community, local laws and policies, and were approved by the Latvian Animal Protection Ethical Committee, the Food and Veterinary Service, Riga, Latvia.
In vivo studies were performed utilizing the mouse sarcoma CCRF-S180 II (CCL-8) and Lewis lung carcinoma (LLC) cell line. All cell lines were purchased from ATCC. The cells were grown in Dulbecco's modified Eagle's medium (Sigma) supplemented with 10% fetal calf serum (Sigma).
ICR mice were subcutaneously inoculated in the back with 5×10^6 CCL-8 cells and BALB/c mice were inoculated with 1×10^6 LLC (Lewis Lung Carcinoma) cells, which were suspended in 0.1 mL of PBS on day zero of the study. The compounds dissolved in DMSO and then in 0.1 mL water (DMSO final concentration 1%) were injected s.c. Mice in the untreated group were similarly given doses of 0.1 mL of water with DMSO. Tumor volume (tumor volume V=[…], a is maximal and b the minimal tumor diameter) was recorded twice per week. […]

4T1 carcinoma cells = test: 4T1 model of lung metastasis (tail vein) in Balb/c mice; type: in vivo, mouse; settings: for % of the total area occupied by metastases, % (control = 100) / % of the total area occupied by metastases, Mean ± SD: 20 mg/kg, days 1, 4, 7, 9, 11, 14
Protocol: Compounds were administered s.c. at 1, 4, 7, 9, 11 and 14th days. 4T1 cells (10,000/0.1 ml PBS) were injected i.v. into syngeneic mice. The metastasis at day 16 are shown for each mouse, and averages are provided for illustration.
Balb/c mice were injected with 100,000 4T1 […] cancer cells into the tail vein and treatment started 24 hr later with subcutaneous (s.c.), intraperitoneal (i.p.) injections or oral administration (p.o.) of compounds according to the following scheme: 1, 4, 7, 9, 11 and 14th days in dose 20 or 40 mg/kg. Compounds were dissolved in DMSO and the solution were diluted by water (DMSO final concentration <1%). Mice in the control group were similarly given doses of 0.1 mL of water with DMSO. Twenty-one days later, all mice were anesthetized with ketamine/xylazine and euthanized, the mice were sacrificed spleens were excised from the mice and weighed. In each experiment, mice were weighed twice weekly.
(Lewis et al, Cancer Res, 2005, 65) Pulmonary metastases were enumerated by intra-tracheal injection of India ink (15% India Ink, 85% water, 3 drops NH4OH/100 ml). India ink injected lungs were washed in Feket's solution (300 ml 70% EtOH, 30 ml 37% formaldehyde, 5 ml glacial acetic acid) and then placed fresh Feket's solution overnight. […] White tumor nodules against a black lung background were measured.

Compound: COC(=O)c1cc2ccc3c(Br)c(CN4CCN(C)CC4)[se]c3c2oc1=O [Compound I-10, Methyl 7-bromo-8-((4-methylpiperazin-1-yl)methyl)-2-oxo-2H-selenopheno[3,2-h]chromene-3-carboxylate]
- Anticancer activity in vivo (inhibition, %), Lewis Lung Carcinoma primary tumor growth [1]: 34%
- Effect on development of splenomegaly (4T1 carcinoma cells; 4T1 i.v.): does not affect the development of splenomegaly
- Spleen weight increase (4T1 carcinoma cells; 4T1 i.v., dose not stated, control with tumor +147%): 63%
- % of the total area occupied by metastases, % (control = 100) (4T1 carcinoma cells; i.p.): 86%
- % of the total area occupied by metastases, Mean ± SD (4T1 carcinoma cells; i.p.): 43 ± 40%
- % of the total area occupied by metastases, % (control = 100) (4T1 carcinoma cells; p.o.): 32** %
- % of the total area occupied by metastases, Mean ± SD (4T1 carcinoma cells; p.o.): 16 ± 18%
- % of the total area occupied by metastases, % (control = 100) (4T1 carcinoma cells; s.c.): 19* %
- % of the total area occupied by metastases, Mean ± SD (4T1 carcinoma cells; s.c., control 50 ± 33): 10 ± 29%

Compound: O=C(O)c1cc2ccc3c(Br)c(C4(O)CCCCC4)[se]c3c2oc1=O [Compound I-11, 7-Bromo-8-(1-hydroxycyclohexyl)-2-oxo-2H-selenopheno[3,2-h]chromene-3-carboxylic acid]
- Prevention of formation of 4T1 carcinoma lung metastasis (4T1 carcinoma cells; five mice per group): 98%
- % of the total area occupied by metastases, % (control = 100) (4T1 carcinoma cells; i.p.): 62%
- % of the total area occupied by metastases, Mean ± SD (4T1 carcinoma cells; i.p.): 31 ± 41%
- % of the total area occupied by metastases, % (control = 100) (4T1 carcinoma cells; p.o.): 28** %
- % of the total area occupied by metastases, Mean ± SD (4T1 carcinoma cells; p.o.): 14 ± 31%
- % of the total area occupied by metastases, % (control = 100) (4T1 carcinoma cells; s.c.): 39** %
- % of the total area occupied by metastases, Mean ± SD (4T1 carcinoma cells; s.c., control 50 ± 33): 20 ± 30%
